# Legend:
# [1] = Control: receptor added to quantum dots without bipyridinium quenchers; settings: in the absence of bipyridinium quenchers
# [2] = Luminescence restoration on adding excess macrocyclic receptor 3 to quantum dots and quencher 1; format: binding; settings: quantum dots 1.5 μM, 1 4.1 μM, 3 21 μM, pH=7.8, 20° C.
# Experimental: (§1) The emission spectra (λEx=350 nm) of the same solution were recorded before (b) and after the consecutive addition of 1 (c, 4.1 μM) and 3 (d, 21 μM). Also shown is a Stern-Volmer plot (e) of hydrophilic CdSe—ZnS core-shell quantum dots (1.5 μM, sodium phosphate buffer, pH=7.8, 20° C., λEx=350 nm) upon addition of increasing amounts of 1.
# The change imposed on the luminescence of the hydrophilic quantum dots by the quencher 1 can be reversed with the addition of an excess of cucurbituril (3 in FIG. 3). Indeed, this particular macrocyclic receptor is known to bind bipyridinium dications with high association constants in aqueous solutions.^36-39 Consistently, the emission spectrum (d in FIG. 2) recorded in the presence of an excess of 3 relative to 1 closely resembles the one recorded before the addition of 1 (b). The infrared spectra recorded before (b in FIG. 4) and after (c in FIG. 4) treatment of the CdSe—ZnS core-shell quantum dots with mercaptoacetic acid and potassium hydroxide show the disappearance of the [C—H] stretching vibrations at 2800 cm^−1 to […] (a) for hydrophobic ligands and the appearance of the [C═O] stretching vibrations at 1300 cm^−1 to 1700 cm^−1 (d) for the hydrophilic ones. […] In principle, the very same mechanism can be adapted to signal receptor-ligand interactions with changes in luminescence. […]
# [3] = Stern-Volmer quenching of quantum dot luminescence by bipyridinium quenchers; format: binding; settings: for Stern-Volmer constant: linear (static) region of plot, quantum dots 1.5 μM, sodium phosphate buffer, pH=7.8, 20° C., λEx=350 nm
# Experimental: as §1
# (§2) Also shown is a Stern-Volmer plot (d) of hydrophilic CdSe—ZnS core-shell quantum dots (1.5 μM, sodium phosphate buffer, pH=7.8, 20° C., λEx=350 nm) after addition of increasing amounts of 2.
# Indeed, bipyridinium dications are known to accept electrons from excited CdSe and CdSe—ZnS core-shell quantum dots, quenching their luminescence.36-37 The corresponding Stern-Volmer plot (e in FIG. 2) deviated from linearity at quencher concentrations greater than about 2.5 μM. […] These observations are consistent with the adsorbance of the dicationic quencher on the surface of the hydrophilic quantum dots as a result of electrostatic interactions with their anionic carboxylate groups.
# In order to test the potential of our operating principles to signal receptor-ligand interactions, we designed a compound (2 in FIG. 3) integrating a bipyridinium quencher and a biotin ligand within the same molecular skeleton and prepared this molecule in two synthetic steps (see FIG. 6). Once again, the luminescence of the hydrophilic quantum dots decreases upon exposure to 2 (a and b in FIG. 7) (the addition of either 1 or 2 to a solution of the quantum dots has no influence on the visible region of the absorption spectrum). […]
# (§3) Methods. […] Infrared absorption spectra were recorded with a Perkin-Elmer Spectrum One Fourier transform spectrometer. Visible absorption spectra were recorded with a Varian Cary 100 Bio spectrometer, using quartz cells with a path length of 0.5 cm. Emission spectra were recorded with a Varian Cary Eclipse spectrometer in aerated solutions. Fast atom bombardment mass spectra (FABMS) were recorded with a VG Mass Lab Trio-2 in a 3-nitrobenzyl alcohol matrix. […]
# bovine serum albumin = target: T1, bovine serum albumin (Bos taurus, UniProt P02769); assay: Specificity control: bovine serum albumin added to quantum dots and 2; format: binding; settings: quantum dots 1.5 μM, 2 4.1 μM, bovine serum albumin 7.4 μM, pH=7.8, 20° C.
# T1 construct: purchased
# Excerpt: (§4) The addition of increasing amounts of streptavidin to a mixture of the hydrophilic quantum dots and 2 leads to a luminescence enhancement (c in FIG. 7). The addition of 3, streptavidin or bovine serum albumin to a solution of the hydrophilic quantum dots has no influence on the emission spectrum in the absence of bipyridinium quenchers. Instead, the addition of bovine serum albumin has no influence of the emission spectrum under otherwise identical conditions (FIG. 8). […] The luminescence increases only by 30% after the association of 2 and streptavidin, while it grows by 80% after the interaction of 1 and 3. […] Presumably, an adjustment in the length of the aliphatic spacer connecting the quencher to the ligand in 2 can be invoked to improve the luminescence enhancement upon streptavidin binding.
# Methods. […] Infrared absorption spectra were recorded with a Perkin-Elmer Spectrum One Fourier transform spectrometer. Visible absorption spectra were recorded with a Varian Cary 100 Bio spectrometer, using quartz cells with a path length of 0.5 cm. Emission spectra were recorded with a Varian Cary Eclipse spectrometer in aerated solutions. Fast atom bombardment mass spectra (FABMS) were recorded with a VG Mass Lab Trio-2 in a 3-nitrobenzyl alcohol matrix. Nuclear magnetic resonance (NMR) spectra were recorded with Bruker Avance 400 and 500 spectrometers.
# streptavidin = target: T2, streptavidin (Streptomyces avidinii, UniProt P22629); assay: Luminescence enhancement on adding streptavidin to quantum dots and quencher-biotin 2; format: binding; settings: quantum dots 1.5 μM, 2 4.1 μM, streptavidin 21 μM (large excess), pH=7.8, 20° C.
# T2 construct: purchased
# Experimental: as §2, §4
# as §3, with “solutions.” for “solutions. Fast atom bombardment mass spectra (FABMS) were recorded with a VG Mass Lab Trio-2 in a 3-nitrobenzyl alcohol matrix.”
# T1 sequence (P02769 25-607): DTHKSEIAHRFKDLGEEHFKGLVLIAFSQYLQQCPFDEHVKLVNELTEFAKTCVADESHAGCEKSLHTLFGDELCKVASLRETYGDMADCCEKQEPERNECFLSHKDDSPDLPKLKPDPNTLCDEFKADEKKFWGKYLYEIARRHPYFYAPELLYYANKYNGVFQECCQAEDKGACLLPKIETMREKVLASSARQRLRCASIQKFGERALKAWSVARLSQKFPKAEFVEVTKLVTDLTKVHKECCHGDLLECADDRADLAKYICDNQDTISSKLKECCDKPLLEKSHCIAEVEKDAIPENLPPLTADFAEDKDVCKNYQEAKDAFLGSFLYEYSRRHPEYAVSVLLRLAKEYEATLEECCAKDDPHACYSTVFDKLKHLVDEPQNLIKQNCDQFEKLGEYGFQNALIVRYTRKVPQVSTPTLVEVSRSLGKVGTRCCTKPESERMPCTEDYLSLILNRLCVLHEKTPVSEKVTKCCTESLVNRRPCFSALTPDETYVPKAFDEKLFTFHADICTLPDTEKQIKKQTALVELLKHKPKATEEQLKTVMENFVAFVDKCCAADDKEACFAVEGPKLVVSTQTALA
effect on the emission spectrum of the quantum dots [1],Compound,Stern-Volmer constant [3],other results
no influence,bovine serum albumin: control protein that does not bind biotin,,
no influence,"O=C1N2CN3C(=O)N4CN5C(=O)N6CN7C(=O)N8CN9C(=O)N%10CN%11C(=O)N%12CN1C1C2N2CN%13C(=O)N(CN%14C(=O)N(CN%15C(=O)N(CN%16C(=O)N(CN%17C(=O)N(CN1C2=O)C%12C%11%17)C%10C9%16)C8C7%15)C6C5%14)C4C3%13 (stereo not drawn) [compound 3, cucurbituril, reference compound]",,

# The remaining lines, values behind:
Compound,effect on the emission spectrum of the quantum dots [1],Stern-Volmer constant [3],other results
"C[n+]1ccc(-c2cc[n+](C)cc2)cc1 [compound 1, methyl viologen, reference compound]",,about 0.45 μM^−1,luminescence increase after interaction with 3 [2]: 80%
streptavidin: protein receptor that binds the biotin ligand of 2,no influence,,
"C[n+]1ccc(-c2cc[n+](CCCOCCCCCC3SCC4NC(=O)NC43)cc2)cc1.[I-].[I-] (stereo not drawn) [compound 2, 1-Methyl-1′-(3-(5-(2-Oxohexahydrothieno[3,4-d]imidazol-6-yl)-pentanoxy)-propyl)-4,4′-Bipyridinium Bisiodide]",,about 0.22 μM^−1,effect of bovine serum albumin on the emission spectrum (bovine serum albumin): no influence; luminescence increase after association with streptavidin (streptavidin): 30%; decrease in the Stern-Volmer constant relative to 1 ([3]; same conditions as the Stern-Volmer plots): about 0.23 μM^−1

# Source: patent US8198099B2, “Mechanism to signal receptor-ligand interactions with luminescent quantum dots” (The University of Miami, priority 2006, dated 2012)
